This test relates to EV71 virus strain Shenzhen/120F1/09. The test can be described thus: EV71 in-vitro cytopathic effect (CPE) test. It is filed as cell-based, RD cells of human rhabdomyoma. Particulars: RD cells, EV71 100 TCID50, 3 days, CCK8 readout, read-out: EC50 by EC71 CPE test, EV71. As to the method: Test of EV71 In-Vitro Cytopathic Effect (CPE) To test the in-vitro antiviral activity and cytotoxicity of a compound to HFMD virus EV71 by means of cytopathic effect (CPE) test. […] Cell line: RD cells of human rhabdomyoma • 3. Cell culture media: DMEM medium added with 10% serum, Penicillin/Streptomycin and L-[…]×) • 4. […] Cell inoculation: digest off the RD cells from the attached state, then dilute them with culture medium to a density of 80000/ml and inoculate 100 μl into the micro wells the 96-well plate. • 2. Dilution of compound: • Step 1: prepare the dry powder of a compound to test into a 10 mM solution in DMSO. Then dilute the compound by three times to eight concentration points. Dilute the reference compounds with the same method. • Step 2: further dilute the diluted solution of the compound in DMSO with cell culture medium. Add 10 μl DMSO solution for each well into 240 μl culture medium. • 3. Add the diluted compound solution by 50 μl each well into the 96-well plate inoculated with cells (double holes, final concentration of DMSO is 1%). • 4. Dilution of virus: dilute EV71 virus solution by 10000 times to a concentration of 100 TCID50/50 μl/. Add the diluted virus solution by 50 μl each well into the 96-well plate. Prepare another 96-well plate to replace the virus with culture medium and similarly inoculate the cells. Add the compound to test the toxicity of compound on cells. • 5. Cultivate the 96-well plate 3 days at the conditions of 37° C. and 5% CO2. • 6. EC50 and CC50 tests: add the cellular activity test reagent CCK8 into the micro-wells by 20 μl/well. Use ELIASA to read the absorbancy at the wavelength of 450 nm and 630 nm. • 7.
(Protection from cytopathic effect is a common read-out in antiviral testing.)

pEC50: −log10 of the molar value. Where two headings read alike, the source gives them in different places.

Turning to `CCOc1noc2cc(OCCC(O)CCN3CCN(c4ccncc4)S3(=O)=O)ccc12` (centres unmarked) [Embodiment 71, 2-(5-((3-ethoxy-benzo[d]isoxazole-6-yl)-oxy)-3-hydroxy-pentyl)-5-(pyridin-4-yl)-1,2,5-thiadiazolidine-1,1-dioxide], where the note is “Enterovirus A, 72 h”, the pEC50 – broadly, −log10 of the EC50, conventionally taken in molar units – is 6.30 to 7.00.
Turning to `CCOc1noc2cc(OCCCCCN3CCN(c4ccncc4)S3(=O)=O)ccc12` [Embodiment 12, 2-(5-((3-ethoxy-benzo[d]isoxazole-6-yl)-oxy)pentyl)-5-(pyridin-4-yl)-1,2,5-thiadiazolidine-1,1-dioxide], the pEC50 (Enterovirus A, 72 h) was more than 7.30.
With `CCO/N=C/c1ccc(OCCCCCN2CCN(c3nccs3)S2(=O)=O)cc1` [Embodiment 35, (E)-4-((5-(1,1-dioxide-5-(thiazol-2-yl)-1,2,5-thiadiazolidine-2-yl)-pentyl)-oxy)-benzaldehyde-O-ethyl ketoxime], where the note is “Enterovirus A, 72 h”, the pEC50 was 6.30 to 7.00.
On to `CCO/N=C1\CCc2cc(OCCC(F)(F)CCN3CCN(c4ccnc(N)c4)S3(=O)=O)ccc21` [Embodiment 31, (E)-2-(2-amino-pyridin-4-yl)-5-(5-((1-(ethoxy-imino)-2,3-dihydro-1H-inden-5-yl)-oxy)-3,3-difluoropentyl)-1,2,5-thiadiazolidine-1,1-dioxide], for which the pEC50 (Enterovirus A, 72 h) is 6.30 to 7.00.
Turning to `CCO/N=C1\CCc2cc(OCCCCCN3CCN(c4ccnc(N)c4)S3(=O)=O)cc(F)c21` [Embodiment 59], the pEC50 (Enterovirus A, 72 h) is more than 7.30.
For the compound `CCO/N=C/c1ccc(OCCCCCN2CCN(c3ccnc(F)c3)S2(=O)=O)cc1` [Embodiment 39, (E)-4-((5-(5-(2-Fluoro-4-yl)-1,1-dioxide-1,2,5-thiadiazolidine-2-yl)-pentyl)-oxy)-benzaldehyde-O-ethyl ketoxime], the pEC50 (Enterovirus A, 72 h) was 7.00 to 7.30.
`Nc1cc(N2CCN(CCCCCOc3ccc(/C=N/OCC4CC4)cc3)S2(=O)=O)ccn1` [Embodiment 52]: the pEC50 (Enterovirus A, 72 h) is more than 7.30.
In the case of `CCO/N=C/c1ccc(OCCCCCN2CCN(c3ccc(C)nn3)S2(=O)=O)cc1` [Embodiment 33, (E)-4-((5-(5-(6-methyl-pyridazin-3-yl)-1,1-dioxide-1,2,5-thiadiazolidine-2-yl)-pentyl)-oxy)-benzaldehyde-O-ethyl ketoxime], under “Enterovirus A, 72 h”, the pEC50 was 6.30 to 7.00.
In the case of `Nc1cc(N2CCN(CCCCCOc3ccc(-c4ccc(Cl)cc4)cc3)S2(=O)=O)ccn1` [Embodiment 16, 2-(2-aminopyridine-4-yl)-5-(5-((4′-chloro-[1,1′-biphenyl]-4-yl)-oxy)-pentyl)-1,2,5-thiadiazolidine-1,1-dioxide], the pEC50 (Enterovirus A, 72 h) is more than 7.30.
Consider `O=S1(=O)N(CCCCC2CCc3cc(-c4ccc(Cl)cc4)ccc3O2)CCN1c1ccncc1` (centres unmarked) [Embodiment 19, 2-(4-(6-(4-chlorophenyl)-chroman-2-yl)-butyl)-5-(pyridin-4-yl)-1,2,5-thiadiazolidine-1,1-dioxide], for which, where the note is “Enterovirus A, 72 h”, the pEC50 was 6.30 to 7.00.
For the compound `CCO/N=C1\CCCc2cc(OCCCCCN3CCN(c4ccnc(N)c4)S3(=O)=O)ccc21` [Embodiment 65], the pEC50 (Enterovirus A, 72 h) was 6.30 to 7.00.
For `CCOc1noc2cc(OCCCCCN3CCN(c4ccnc(N)c4)S3(=O)=O)ccc12` [Embodiment 28, 4-(5-(5-((3-ethoxy-1,2-benzoxazol-6-yl)-oxy)-pentyl)-1,1-dioxide-1,2,5-thiadiazolidine-2-yl)-pyridin-2-amine], the pEC50 (Enterovirus A, 72 h) was more than 7.30.
Turning to `CCO/N=C/c1ccc(OCCCCN2CCN(c3ccnc(N)c3)S2(=O)=O)cc1` [Embodiment 26], the pEC50 (Enterovirus A, 72 h) was 6.30 to 7.00.
In the case of “(S,E)-2-(2-aminopyridin-4-yl)-5-(5-((1-(ethoxy-imino)-2,3-dihydro-1H-inden-5-yl)-oxy)-3-methylpentyl)-1,2,5-thiadiazolidine-1,1-dioxide and (R,E)-2-(2-aminopyridin-4-yl)-5-(5-((1-(ethoxy-imino)-2,3-dihydro-1H-inden-5-yl)-oxy)-3-methylpentyl)-1,2,5-thiadiazolidine-1,1-dioxide [Embodiment 29]”, the pEC50 is more than 7.30.
Take `CC(C)O/N=C1\CCc2cc(OCCCCCN3CCN(c4ccnc(N)c4)S3(=O)=O)ccc21` [Embodiment 58]: the pEC50 (Enterovirus A, 72 h) was more than 7.30.
With `CCO/N=C1\CCc2cc(OCCCCCN3CCN(c4ccnnc4)S3(=O)=O)ccc21` [Embodiment 70], for the setting “Enterovirus A, 72 h”, the negative logarithm of the EC50 (pEC50) is 6.30 to 7.00.
Consider `CCO/N=C/c1ccc(OCCCCCN2CCN(c3ccncc3)S2(=O)=O)cc1` [Embodiment 7], for which the pEC50 (Enterovirus A, 72 h) was more than 7.30.
Same read-out and setting: in the case of `Nc1cc(N2CCN(CCCCCOc3ccc(C=O)cc3)S2(=O)=O)ccn1` [Embodiment 24, 4-((5-(5-(2-aminopyridin-4-yl)-1,1-dioxide-1,2,5-thiadiazolidine-2-yl)-pentyl)-oxy)-benzaldehyde] it was 6.00 to 6.30; in that of `CCO/N=C/c1ccc(OCCCCCN2CCN(c3ccnc(NC(C)=O)c3)S2(=O)=O)cc1` [Embodiment 36, (E)-N-(4-(5-(5-(4-((ethoxy-imino)-methyl)-phenoxy)-pentyl)-1,1-dioxide-1,2,5-thiadiazolidine-2-yl)-pyridin-2-yl)-acetamide], more than 7.30.
For `CCO/N=C/c1ccc(OCCC(C)CCN2CCN(c3ccncc3)S2(=O)=O)cc1` (centres unmarked) [Embodiment 14, (E)-4-((5-(1,1-dioxo-5-(pyridin-4-yl)-1,2,5-thiadiazolidine-2-yl)-3-methyl-pentyl)-oxy)-benzaldehyde-O-ethyloxime], the pEC50 (Enterovirus A, 72 h) is more than 7.30.
In the case of `CCO/N=C/c1ccc(OCCCCCN2CCN(c3ccnc(C(=O)OC)c3)S2(=O)=O)cc1` [Embodiment 37], under “Enterovirus A, 72 h”, the pEC50 is 6.00 to 6.30.
Turning to `O=S1(=O)N(CCCCCOc2ccc(-c3ccc(Cl)cc3)cc2)CCN1c1ccncc1` [Embodiment 6, 2-(5-((4′-chloro-[1,1′-biphenyl]-4-yl)oxy)pentyl)-5-(pyridin-4-yl)-1,2,5-thiadiazolidine-1,1-dioxide], the pEC50 (Enterovirus A, 72 h) is 7.00 to 7.30.
With `CCc1noc2cc(OCCCCCN3CCN(c4ccnc(N)c4)S3(=O)=O)ccc12` [Embodiment 62, 2-(2-amino-pyridin-4-yl)-5-(5-((3-ethyl-benzo[d]isoxazol-6-yl)-oxy)-pentyl)-1,2,5-thiadiazolidine-1,1-dioxide], for the setting “Enterovirus A, 72 h”, the pEC50 is 6.30 to 7.00.
With `Nc1cc(N2CCN(CCCCCOc3ccc(-c4noc(C(F)(F)F)n4)cc3)S2(=O)=O)ccn1` [Embodiment 68, 2-(2-amino-pyridin-4-yl)-5-(5-(4-(5 (trifluoromethyl)-1,2,4-oxadiazol-3-yl)-phenoxy)-pentyl)-1,2,5-thiadiazolidine-1,1-dioxide], the pEC50 (Enterovirus A, 72 h) is 6.00 to 6.30.
Turning to `CCO/N=C/c1ccc(OCCCCCN2CCN(c3ccnc(C)c3)S2(=O)=O)cc1` [Embodiment 32, (E)-4-((5-(5-(2-methylpyridin-4-yl)-1,1-dioxide-1,2,5-thiadiazol-2-yl)-pentyl)-oxy)-benzaldehyde-O-ethyl ketoxime], the pEC50 (Enterovirus A, 72 h) was more than 7.30.
On the same count and under the same terms, in the case of `CCCc1nc2ccc(OCCCCCN3CCN(c4ccnc(N)c4)S3(=O)=O)cc2o1` [Embodiment 66, 2-(2-amino-pyridin-4-yl)-5-(5-((2-propyl-benzo[d]oxazole-6-yl)-oxy)-pentyl)-1,2,5-thiadiazolidine-1,1-dioxide] it was 7.00 to 7.30.
On the same count and under the same terms, the value for `CCO/N=C/c1ccc(OCCCCCN2CCN(c3ccnc(N(C)C)c3)S2(=O)=O)cc1` [Embodiment 43, (E)-4-((5-(5-(2-(dimethylamino)-pyridin-4-yl)-1,1-dioxide-1,2,5-thiadiazolidine-2-yl)-pentyl)-oxy)-benzaldehyde-O-ethyl ketoxime] was 6.30 to 7.00; that for `CCc1nc(-c2ccc(OCCCCCN3CCN(c4ccncc4)S3(=O)=O)cc2)no1` [Embodiment 10, 2-(5-(4-(5-ethyl-1,2,4-oxadiazol-3-yl)-phenoxy)-pentyl)-5-(pyridin-4-yl)-1,2,5-thiadiazolidine-1,1-dioxide] was 7.00 to 7.30.
For the compound `CCO/N=C/c1ccc2c(c1)CCC(CCCCN1CCN(c3ccncc3)S1(=O)=O)O2` (centres unmarked) [Embodiment 21, (E)-2-(4-(1,1-dioxo-5-(pyridin-4-yl)-1,2,5-thiadiazolidine-2-yl)-butyl)-chroman-6-formaldehyde-O-ethyloxime], the pEC50 (Enterovirus A, 72 h) was more than 7.30.
`CCO/N=C/c1ccc(OCCCCCN2CCN(c3ccnc(NCCO)c3)S2(=O)=O)cc1` [Embodiment 40, (E)-4-((5-(5-(2-((2-hydroxyethyl)-amino)-pyridin-4-yl)-1,1-dioxide-1,2,5-thiadiazolidine-2-yl)-pentyl)-oxy)-benzaldehyde-O-ethyl ketoxime]: the pEC50 (Enterovirus A, 72 h) was more than 7.30.
For the compound `CCO/N=C1\CCc2cc(OCCCCCN3CCN(c4ccnc(NCCO)c4)S3(=O)=O)ccc21` [Embodiment 51, (E)-2-(5-((1-(ethoxy-imino)-2,3-dihydro-1H-inden-5-yl)-oxy)-pentyl)-5-(2-((2-hydroxyethyl)-amino)-pyridin-4-yl)-1,2,5-thiadiazolidine-1,1-dioxide], for the setting “Enterovirus A, 72 h”, the pEC50 was more than 7.30.
Take `CCO/N=C/c1ccc(OCCCCCN2CCN(c3ccc(C#N)cc3)S2(=O)=O)cc1` [Embodiment 44]: the pEC50 (Enterovirus A, 72 h) is 7.00 to 7.30.

These data come from US9988361B2, “Anti-enterovirus 71 thiadiazolidine derivative” (JIANGSU KANION PHARMACEUTICAL CO. LTD, priority 2014, dated 2018).
